Measurements reported in the NIST ThermoML archive (doi:10.1021/je100832h).

Conditions: Liquid; for mass density: 101.32 kPa, Vibrating tube method; for vapor or sublimation pressure: Ebulliometric method (Recirculating still)

CCCCCCCCCC [decane]
Conditions	mass density [kg/m3]	vapor or sublimation pressure [kPa]
291.15 K	731.22	–
298.15 K	726.2	–
318.15 K	710.9	–
328.15 K	703.34	–
386.86 K	–	15.86
390.21 K	–	17.94
393.85 K	–	20.43
397.62 K	–	23.28
400.9 K	–	26.08
403.65 K	–	28.54
406.2 K	–	31.1
408.52 K	–	33.59
411.2 K	–	36.58
413.6 K	–	39.44
414.92 K	–	41.05
416.83 K	–	43.54
419.01 K	–	46.44
420.74 K	–	48.95
422.51 K	–	51.55
424.11 K	–	54.05
425.85 K	–	56.84
427.5 K	–	59.6
429.13 K	–	62.41
430.69 K	–	65.23
432.29 K	–	68.16
433.61 K	–	70.76
435.15 K	–	73.71
436.57 K	–	76.61
437.52 K	–	78.69
438.92 K	–	81.7
440.19 K	–	84.46
441.29 K	–	86.98
442.23 K	–	89.2
443.35 K	–	91.83
444.37 K	–	94.3
444.8 K	–	95.2
446.16 K	–	98.41
446.55 K	–	99.37
446.97 K	–	100.62
447.3 K	–	101.32
448.21 K	–	103.75
449.29 K	–	106.58
450.33 K	–	109.39
451.31 K	–	112.15
452.1 K	–	114.36
452.89 K	–	116.67
453.87 K	–	119.46
454.7 K	–	121.94
455.13 K	–	123.25
455.92 K	–	125.63
456.82 K	–	128.4
457.59 K	–	130.81
458.4 K	–	133.37
459.16 K	–	135.82
460.02 K	–	138.64
460.42 K	–	140
461.26 K	–	142.82
462.1 K	–	145.65
463.1 K	–	148.84
463.75 K	–	151.4
464.39 K	–	153.69
465.12 K	–	156.4
465.77 K	–	158.65
466.55 K	–	161.57
467.33 K	–	164.47
468.04 K	–	167.22
468.81 K	–	170.16
469.38 K	–	172.45
470.03 K	–	175.03
470.6 K	–	177.34
471.2 K	–	179.77
471.77 K	–	182.08
472.23 K	–	184.14
472.78 K	–	186.39
473.35 K	–	188.8
474.12 K	–	191.58
474.81 K	–	194.61
475.37 K	–	197.04
